“Also recorded” adds a separate entry of the source. Read-outs that look alike come from different tables or passages of the source. Marks after values point to notes of the source that are not given here.
Tests used:
[1] = tested on: stenosis at the talc-administered site; test: Inflammatory stenosis caused by talc at the coronary artery adventitia: degree of stenosis; assay type: in vivo, beagle dogs
Description: (§1) Anesthetized beagle dogs were employed for the test. While each of the animals was ventilated with air, thoracotomy was performed at the left fifth intercostal space, to thereby expose the heart. Subsequently, talc powder was administered to the vicinity of the adventitia at an intermediate portion of the anterior descending branch of the left coronary artery, which caused inflammation. Subsequently, the thoracotomy site was closed, and phenolsulfonphthalein was injected under conditions similar to those of the test described above in (A) by use of a perforated balloon equipped with an injection syringe containing the drug. After recovery from anesthesia, the animal was bred for one month, and then subjected to coronary angiography. Thereafter, the heart was extirpated from the animal, and then subjected to formalin fixation. A microscopic sample of the talc-administered portion was prepared, and the sample was subjected to β-actin staining, followed by determination of the density of β-actin-positive cells (i.e., stem cells).

[2] = tested on: β-actin-positive vascular stem cells in coronary artery; test: Insertion of drug-eluting stent into coronary artery: stem cell density; assay type: in vivo, beagle dogs; details: two-layer-coated drug-eluting stent (inner PLGA 7510, outer PLA 0010), one month
Excerpt: (§2) Nembutal-anesthetized beagle dogs were employed for the test. While each of the animals was ventilated with air, an 8-French guide catheter was inserted through the right common carotid artery, followed by left coronary angiography. Subsequently, a drug-eluting stent (inner layer: PLGA 7510 containing 50% phenolsulfonphthalein, outer layer: PLA 0010 containing 50% phenolsulfonphthalein) was inserted into the left circumflex branch, and then expanded at 9 atm, followed by placement of the stent. After recovery from anesthesia, the animal was bred for one month, and then was again subjected to coronary angiography. The degree of stenosis was measured at the most stenotic site of the stent-inserted portion, and the thus-measured stenosis degree was compared with that in the case of a non-eluting stent group (i.e., a group in which a stent that is not coated with a drug was inserted). Subsequently, the heart was extirpated from the animal, and then subjected to formalin fixation. Thereafter, a microscopic sample of the stent-inserted portion was prepared, followed by staining of vascular smooth muscle β-actin. Stem cells per unit area were counted at the highest-cell-density site of the intima, media, or adventitia of the above-stained sample. Comparison (in terms of stem cell density) was performed between the drug-eluting stent group and the non-eluting stent group (i.e., the group in which a stent that is not coated with a drug was inserted).

coronary artery stenosis [3] = test: Insertion of drug-eluting stent into coronary artery: degree of stenosis; assay type: in vivo, beagle dogs; details: one month, most stenotic site of stent-inserted portion
Excerpt: as §2, with “Comparison (in terms of stem cell density) was performed between the drug-eluting stent group and the non-eluting stent group (i.e., the group in which a stent that is not coated with a drug was inserted).” left out

[4] = tested on: dendritic cells in the coronary artery wall; test: Prevention of cell invasion associated with coronary angioplasty, local administration: dendritic cell count (CD40 immunostaining); assay type: in vivo, beagle dogs; details: for Number of dendritic cells (250 × 250 μm^2): 5% drug 0.5 mL injected locally after balloon dilation; for invasion of dendritic cells: CD40 antibody immunostaining
Excerpt: (§3) Nembutal-anesthetized beagle dogs were employed for the test. Each of the animals was endotracheally intubated, and ventilated with air. Subsequently, an 8-French sheath was inserted into the right common carotid artery. An 8-French guide catheter was inserted through the sheath, followed by coronary angiography. Subsequently, a clinically employed balloon catheter for coronary angioplasty (outer diameter: 3 mm, length: 20 mm) was inserted, and then the balloon was expanded at 9 atm, to thereby dilate a distal to intermediate portion of the anterior descending branch of the coronary artery. Through this procedure, the blood vessel wall was damaged. Subsequently, the aforementioned perforated balloon catheter equipped with an injection syringe containing 5% phenolsulfonphthalein (0.5 mL) or 5% bromosulfophthalein (0.5 mL) was guided by a guide wire and inserted into the above-dilated portion, and the phthalein compound (drug) was injected into the blood vessel wall at 3 atm. After completion of injection of the drug, the catheter was removed, and then the cervical portion through which the catheter had been inserted was sutured, followed by administration of an antibiotic. After recovery from anesthesia, the animal was cared for one week to one month, and was again subjected to coronary angiography. One week to one month later, the animal was anesthetized to stop cardiac beat and, the heart was removed from the animal, and then subjected to formalin fixation, followed by preparation of a microscopic sample of the above-dilated portion. Subsequently, the thus-prepared sample was subjected to azan staining and various immunostainings.
(§4) In connection with this finding, in the above-immunostained sample, stem cells per unit area (250×250 um^2) were counted at the highest-cell-density site of the intima, media, or adventitia. Comparison (in terms of the number of stem cells) was performed between drug administration groups and a non-administration group (control group) in which merely saline (0.5 mL) was injected into a portion of the coronary artery dilated with a balloon, and P<0.05 (by Student t test) was regarded as a significant difference.
Dendritic cells, which are inflammatory cells, were subjected to immunostaining with a CD40 antibody.

[5] = tested on: thrombus in the right common carotid artery; test: Arterial thrombosis, carotid intima damaged by Dotter balloon catheter; assay type: in vivo, dogs; details: 10 mg/kg intravenously; for Average thrombus weight: wet weight thirty minutes after intima damage
Description: Anesthetized dogs were employed for the test. Phenolsulfonphthalein or bromosulfophthalein (10 mg/kg, which is 100 times the amount clinically used for renal function testing) was intravenously administered to each of the animals, and the intima of the right common carotid artery was damaged by means of a Dotter balloon catheter. Thirty minutes later, the common carotid artery was extirpated, and the wet weight of thrombus present in the carotid artery was measured. The thus-measured wet weight was compared with that in the case of the control group.

[6] = tested on: β-actin-positive stem cells at the talc-administered site; test: Inflammatory stenosis caused by talc at the coronary artery adventitia: stem cell density; assay type: in vivo, beagle dogs; details: for Number of stem cells (250 × 250 μm^2): one month
Description: as §1

[7] = tested on: β-actin-positive stem cells in the coronary artery wall; test: Prevention of stem cell invasion associated with coronary angioplasty, local administration by pored balloon catheter: stem cell count; assay type: in vivo, beagle dogs; details: for stem cell density compared with the non-administration group: at all the membranes
Excerpt: as §3, §4

[8] = tested on: human coronary artery smooth muscle cells; test: Proliferation of human coronary artery smooth muscle cells; assay type: cell-based; details: for number of cells after culturing for three days: Smooth muscle cells
Description: (§5) Human umbilical vein endothelial cells (HUBEC) (1×10^5/cm^2) were inoculated into a medium containing MCDB-104, 10% FBS, ECGF (100 ng/mL), EGF (10 ng/mL), and heparin (100 ng/mL), and phenolsulfonphthalein or bromosulfophthalein was added to the medium, followed by culturing for three days. Thereafter, the resultant cells were counted, and the number of the cells was compared with that in the case where no drug was added to the medium. In a manner similar to that described above, human coronary artery smooth muscle cells (1×10^5/cm^2) were cultured in a medium containing MCDB-104, 10% FBS, and EGF (10 ng/mL) for three days, and the resultant cells were counted.

coronary artery stenosis [9] = test: Coronary artery stenosis after balloon angioplasty, local administration (coronary angiography, azan staining); assay type: in vivo, beagle dogs; details: for stenosis as determined through coronary angiography: compared with non-administration group; for Stenosis degree (%): coronary angiography, 5% drug 0.5 mL injected locally after balloon dilation
Excerpt: as §3

[10] = tested on: Human umbilical vein endothelial cells (HUBEC); test: Proliferation of human vascular endothelial cells; assay type: cell-based; details: for number of cells after culturing for three days: Endothelial cells
Description: as §5

[11] = International Publication WO 01/93871; cited from earlier work
[12] = tested on: human coronary artery smooth muscle cells; details: International Publication WO 01/93871; cited from earlier work
[13] = Adventitia, 5% drug 0.5 mL injected locally after balloon dilation
[14] = Intima, 5% drug 0.5 mL injected locally into vessel wall after balloon dilation, per unit area at highest-cell-density site
[15] = Media, 5% drug 0.5 mL injected locally after balloon dilation

Row | Structure (SMILES) | Number of stem cells (250 × 250 μm^2) ([2]; Adventitia) | Number of stem cells (250 × 250 μm^2) ([2]; Intima) | Number of stem cells (250 × 250 μm^2) ([2]; Media) | Stenosis degree (%) (coronary artery stenosis [3]) | Number of dendritic cells (250 × 250 μm^2) ([4]; Adventitia) | invasion of dendritic cells [4] | Number of dendritic cells (250 × 250 μm^2) ([4]; Intima) | Number of dendritic cells (250 × 250 μm^2) ([4]; Media) | effect of inhibiting thrombus formation (antithrombotic effect) [5] | Average thrombus weight [5] [mg] | number of cells after culturing for three days ([8]; Concentration (mol) 10^−4) | number of cells after culturing for three days ([8]; Concentration (mol) 10^−5) | number of cells after culturing for three days ([8]; Concentration (mol) 10^−6) | number of cells after culturing for three days ([8]; Concentration (mol) 10^−7) | number of cells after culturing for three days ([8]; Concentration (mol) 10^−8) | number of cells after culturing for three days ([10]; Concentration (mol) 10^−4) | number of cells after culturing for three days ([10]; Concentration (mol) 10^−5) | number of cells after culturing for three days ([10]; Concentration (mol) 10^−6) | number of cells after culturing for three days ([10]; Concentration (mol) 10^−7) | number of cells after culturing for three days ([10]; Concentration (mol) 10^−8) | other results
1 | O=S1(=O)OC(c2ccc(O)cc2)(c2ccc(O)cc2)c2ccccc21 [Phenolsulfonphthalein, phenolsulfonphthalein] | 16.0 ± 7.1* 250 × 250 μm^2 | 7.1 ± 3.2** 250 × 250 μm^2 | 9.0 ± 4.0* 250 × 250 μm^2 | 0 ± 0.0 | 1.0 ± 0.5* 250 × 250 μm^2 | inhibited | 0.2 ± 0.0* 250 × 250 μm^2 | 0.0 ± 0.0* 250 × 250 μm^2 | no effect; also recorded: nor antithrombotic effect | 195 | 3.65 | 3.88 | 4.17 | 4.02 | 4.08 | 3.37 | 3.40 | 3.35 | 3.43 | 3.47 | degree of stenosis [1]: significantly lower; Stenosis degree (%) ([1]; one month, coronary angiography): 10.4 ± 2.7 %; β-actin-positive cell density compared with the non-administration group [6]: significantly lower; Number of stem cells (250 × 250 μm^2) ([6]; Adventitia): 12.2 ± 3.4* 250 × 250 μm^2; Number of stem cells (250 × 250 μm^2) ([6]; Intima): 2.0 ± 0.8* 250 × 250 μm^2; Number of stem cells (250 × 250 μm^2) ([6]; Media): 2.6 ± 0.7* 250 × 250 μm^2; Number of stem cells [7, 13]: 19.3 ± 6.3* 250×250 um^2; Number of stem cells [7, 14]: 11.0 ± 4.2* 250×250 um^2; Number of stem cells [7, 15]: 10.1 ± 2.8* 250×250 um^2; stem cell density compared with the non-administration group [7]: significantly lower; cell invasion (FIG. 2) ([7]; four weeks after dilation): less observed; cell invasion from the adventitia into the intima (FIG. 1) ([7]; one week after dilation with a balloon, azan staining): virtually no cell invasion is observed; also recorded: not observed; effect of inhibiting proliferation of vascular smooth muscle cells [8]: no effect; stenosis as determined through coronary angiography (coronary artery stenosis [9]): significantly inhibited; Stenosis degree (%) (coronary artery stenosis [9]): 10.1 ± 2.5 %; stenosis due to intimal hyperplasia (FIG. 2) (coronary artery stenosis [9]; four weeks after dilation, azan staining): only slight intimal hyperplasia; also recorded: only slightly observed; effect of inhibiting proliferation of human vascular endothelial cells (HUBEC) [10]: no effect
2 | Cc1cc(-c2ccc(/N=N/c3ccc4c(S(=O)(=O)O)cc(S(=O)(=O)O)c(N)c4c3O)c(C)c2)ccc1/N=N/c1ccc2c(S(=O)(=O)O)cc(S(=O)(=O)O)c(N)c2c1O [Evans Blue] |  |  |  |  |  |  |  |  |  |  | 0.07*** | 0.34** | 1.00* | 3.50* | 3.89 | 0.12** | 0.98* | 1.54* | 3.11* | 3.50 | antithrombotic effect [11]: antithrombotic effect; effect of inhibiting proliferation of vascular smooth muscle cells [12]: has the effect of inhibiting proliferation of vascular smooth muscle cells
3 | O=C1OC(c2ccc(O)c(S(=O)(=O)O)c2)(c2ccc(O)c(S(=O)(=O)O)c2)c2c(Br)c(Br)c(Br)c(Br)c21 [Bromosulfophthalein, bromosulfophthalein] | 20.3 ± 9.9* 250 × 250 μm^2 | 8.8 ± 2.6** 250 × 250 μm^2 | 8.6 ± 5.0* 250 × 250 μm^2 | 11.2 ± 3.1 | 3.6 ± 0.9* 250 × 250 μm^2 | inhibited | 1.6 ± 0.4* 250 × 250 μm^2 | 1.1 ± 0.1 250 × 250 μm^2 | no effect; also recorded: nor antithrombotic effect | 210 | 3.43 | 3.78 | 4.19 | 4.14 | 4.24 | 3.44 | 3.43 | 3.52 | 3.59 | 3.34 | Number of stem cells [7, 13]: 22.0 ± 6.2* 250×250 um^2; Number of stem cells [7, 14]: 14.8 ± 6.1* 250×250 um^2; Number of stem cells [7, 15]: 16.1 ± 4.8 250×250 um^2; stem cell density compared with the non-administration group [7]: significantly lower; effect of inhibiting proliferation of vascular smooth muscle cells [8]: no effect; stenosis as determined through coronary angiography (coronary artery stenosis [9]): significantly inhibited; Stenosis degree (%) (coronary artery stenosis [9]): 33.5 ± 10.4 %; effect of inhibiting proliferation of human vascular endothelial cells (HUBEC) [10]: no effect
